Reference: patent US20220274954A1, “SUBSTITUTED N-PHENYL-N-AMINOUARCILS AND SALTS THEREOF AND USE THEREOF AS HERBICIDAL AGENTS” (Bayer Aktiengesellschaft, priority 2019, published 2022)

Columns and labels:
Type in all cases: in vivo
Abutilon theophrasti [1] = assay: Post-emergence herbicidal action; settings: Abutilon theophrasti, 504 h, read-out: Abutilon theophrasti (efficacy in %); for pest or weed control at 5 g/ha: application rate 5 g/ha
Summary of the method: (§1)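 Plants grown from seed in sandy loam in the greenhouse were sprayed at the one-leaf stage, 2 to 3 weeks after sowing, with WP or EC formulations in water plus 0.5% additive at 20 g/ha or less. Activity was rated visually after about 3 weeks against untreated controls (100% = plants died, 0% = like control).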

Amaranthus retroflexus [2] = assay: Post-emergence herbicidal action; settings: Amaranthus retroflexus, 504 h, read-out: Amaranthus retroflexus (efficacy in %)
Summary of the method: as §1

Digitaria sanguinalis [3] = assay: Post-emergence herbicidal action; settings: 504 h, application rate 20 g/ha, read-out: Digitaria sanguinalis (efficacy in %)
Summary of the method: as §1

Echinochloa crus-galli [4] = assay: Post-emergence herbicidal action; settings: Echinochloa crus-galli, 504 h, read-out: Echinochloa crus-galli (efficacy in %)
Summary of the method: as §1

Matricaria inodora [5] = assay: Post-emergence herbicidal action; settings: Tripleurospermum inodorum, 504 h, read-out: Matricaria inodora (efficacy in %); for pest or weed control at 5 g/ha: application rate 5 g/ha
Summary of the method: as §1

Pharbitis purpurea [6] = assay: Post-emergence herbicidal action; settings: Ipomoea purpurea, 504 h, application rate 5 g/ha, read-out: Pharbitis purpurea (efficacy in %)
Summary of the method: as §1

Polygonum convolvulus [7] = assay: Post-emergence herbicidal action; settings: Fallopia convolvulus, 504 h, read-out: Polygonum convolvulus (efficacy in %)
Summary of the method: as §1

Setaria viridis [8] = assay: Post-emergence herbicidal action; settings: 504 h, read-out: Setaria viridis (efficacy in %); for pest or weed control at 5 g/ha: application rate 5 g/ha
Summary of the method: as §1

Stellaria media = assay: Post-emergence herbicidal action; settings: application rate 20 g/ha
Summary of the method: as §1

Veronica persica [9] = assay: Post-emergence herbicidal action; settings: Veronica persica, 504 h, read-out: Veronica persica (efficacy in %); for pest or weed control at 5 g/ha: application rate 5 g/ha
Summary of the method: as §1

Viola tricolor [10] = assay: Post-emergence herbicidal action; settings: Viola tricolor, 504 h, read-out: Viola tricolor (efficacy in %)
Summary of the method: as §1

Brassica napus [11] = assay: Post-emergence crop plant compatibility
Summary of the method: (§2)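 Values are visual % effects about 3 weeks after treatment, relative to untreated plants (0% = like control, 100% = plant death). Crops sown in sandy loam under greenhouse conditions were treated post-emergence at the one-leaf stage (2–3 weeks). Compounds were applied as WP or EC sprays with 0.5% additive at […] water.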

Glycine max [12] = assay: Post-emergence crop plant compatibility
Summary of the method: as §2

Oryza sativa = assay: Post-emergence crop plant compatibility
Summary of the method: as §2

Zea mays [13] = assay: Post-emergence crop plant compatibility; settings: application rate 1.25 g/ha
Summary of the method: as §2

Abutilon theophrasti [14] = assay: Pre-emergence herbicidal action; settings: application rate 80 g/ha, scored after about 3 weeks
Text: (§3) Seeds of monocotyledonous and dicotyledonous weed plants and crop plants were placed in plastic or organic planting pots and covered with soil. The compounds of the invention, formulated in the form of wettable powders (WP) or as emulsion concentrates (EC), were then applied to the surface of the covering soil as aqueous suspension or emulsion with addition of 0.5% additive at a water application rate equivalent to […] (converted). After the treatment, the pots were placed in a greenhouse and kept under good growth conditions for the test plants. After about 3 weeks, the effect of the preparations was scored visually in comparison with untreated controls as percentages. For example, 100% activity=the plants have died, 0% activity=like control plants.
(§4) Tables B1 to B11 below show the effects of selected compounds of the general formula (I) according to Tables I.1 to I.34 on various harmful plants and at an application rate corresponding to 80 g/ha and less, which were obtained by the experimental procedure mentioned above.

Alopecurus myosuroides = assay: Pre-emergence herbicidal action; settings: application rate 80 g/ha
Text: as §3, §4

Amaranthus retroflexus [15] = assay: Pre-emergence herbicidal action; settings: scored after about 3 weeks
Text: as §3, §4

Digitaria sanguinalis [16] = assay: Pre-emergence herbicidal action; settings: scored after about 3 weeks
Text: as §3, §4

Echinochloa crus-galli [17] = assay: Pre-emergence herbicidal action; settings: application rate 80 g/ha, scored after about 3 weeks
Text: as §3, §4

Lolium rigidum = assay: Pre-emergence herbicidal action; settings: application rate 80 g/ha, scored after about 3 weeks
Text: as §3, §4

Matricaria inodora [18] = assay: Pre-emergence herbicidal action; settings: scored after about 3 weeks
Text: as §3, §4

Pharbitis purpurea [19] = assay: Pre-emergence herbicidal action; settings: application rate 80 g/ha, scored after about 3 weeks
Text: as §3, §4

Polygonum convolvulus [20] = assay: Pre-emergence herbicidal action; settings: scored after about 3 weeks
Text: as §3, §4

Setaria viridis [21] = assay: Pre-emergence herbicidal action; settings: scored after about 3 weeks
Text: as §3, §4

Veronica persica [22] = assay: Pre-emergence herbicidal action; settings: scored after about 3 weeks
Text: as §3, §4

Viola tricolor [23] = assay: Pre-emergence herbicidal action; settings: scored after about 3 weeks
Text: as §3, §4

Brassica napus [24] = assay: Pre-emergence crop plant compatibility; settings: application rate 20 g/ha
Text: as §3
(§5) Here, the observed effects on selected crop plants are stated in comparison to the untreated controls (values in %).

Triticum aestivum [25] = assay: Pre-emergence crop plant compatibility; settings: application rate 20 g/ha
Text: as §3, §5

Zea mays [26] = assay: Pre-emergence crop plant compatibility
Text: as §3, §5

Triticum aestivum [27] = assay: Post-emergence crop plant compatibility
Summary of the method: as §2

Glycine max [28] = assay: Pre-emergence crop plant compatibility; settings: application rate 80 g/ha
Text: as §3, §5

CCOC(=O)COc1ncccc1Sc1cc(-n2c(=O)cc(C(F)(F)F)n(N)c2=O)c(F)cc1Cl [I.1-442, Ethyl {[3-({5-[3-amino-2,6-dioxo-4-(trifluoromethyl)-3,6-dihydropyrimidin-1(2H)-yl]-2-chloro-4-fluorophenyl}sulfanyl)pyridin-2-yl]oxy}acetate]
pest or weed control at 5 g/ha (Abutilon theophrasti [1]): 100% | pest or weed control at 20 g/ha (Abutilon theophrasti [1]; application rate 20 g/ha): 100% | pest or weed control at 5 g/ha (Amaranthus retroflexus [2]; application rate 5 g/ha): 100% | pest or weed control at 20 g/ha (Amaranthus retroflexus [2]; application rate 20 g/ha): 100% | pest or weed control at 20 g/ha (Digitaria sanguinalis [3]): 100% | pest or weed control at 5 g/ha (Echinochloa crus-galli [4]; application rate 5 g/ha): 100% | pest or weed control at 20 g/ha (Echinochloa crus-galli [4]; application rate 20 g/ha): 100% | pest or weed control at 5 g/ha (Matricaria inodora [5]): 90% | pest or weed control at 20 g/ha (Matricaria inodora [5]; application rate 20 g/ha): 100% | pest or weed control at 5 g/ha (Pharbitis purpurea [6]): 100% | pest or weed control at 20 g/ha (Polygonum convolvulus [7]; application rate 20 g/ha): 100% | pest or weed control at 5 g/ha (Setaria viridis [8]): 100% | pest or weed control at 20 g/ha (Setaria viridis [8]; application rate 20 g/ha): 100% | Stellaria media (efficacy in %) (Stellaria media): 100% | pest or weed control at 5 g/ha (Veronica persica [9]): 100% | pest or weed control at 20 g/ha (Veronica persica [9]; application rate 20 g/ha): 100% | pest or weed control at 5 g/ha (Viola tricolor [10]; application rate 5 g/ha): 100% | pest or weed control at 20 g/ha (Viola tricolor [10]; application rate 20 g/ha): 100% | Brassica napus (efficacy in %) (Brassica napus [11]; application rate 1.25 g/ha): 10% | Glycine max (efficacy in %) (Glycine max [12]; application rate 1.25 g/ha): 10% | Glycine max (efficacy in %) (Glycine max [12]; application rate 5 g/ha): 20% | Oryza sativa (efficacy in %) (Oryza sativa; application rate 1.25 g/ha): 10% | Oryza sativa (efficacy in %) (Oryza sativa; application rate 5 g/ha): 20% | Zea mays (efficacy in %) (Zea mays [13]): 20% | Abutilon theophrasti (efficacy in %) (Abutilon theophrasti [14]): 100% | Alopecurus myosuroides (efficacy in %) (Alopecurus myosuroides): 90% | Amaranthus retroflexus (efficacy in %) (Amaranthus retroflexus [15]; application rate 20 g/ha): 100% | Amaranthus retroflexus (efficacy in %) (Amaranthus retroflexus [15]; application rate 80 g/ha): 100% | Digitaria sanguinalis (efficacy in %) (Digitaria sanguinalis [16]; application rate 20 g/ha): 100% | Digitaria sanguinalis (efficacy in %) (Digitaria sanguinalis [16]; application rate 80 g/ha): 100% | Echinochloa crus-galli (efficacy in %) (Echinochloa crus-galli [17]): 100% | Lolium rigidum (efficacy in %) (Lolium rigidum): 100% | Matricaria inodora (efficacy in %) (Matricaria inodora [18]; application rate 20 g/ha): 100% | Matricaria inodora (efficacy in %) (Matricaria inodora [18]; application rate 80 g/ha): 100% | Pharbitis purpurea (efficacy in %) (Pharbitis purpurea [19]): 100% | Polygonum convolvulus (efficacy in %) (Polygonum convolvulus [20]; application rate 20 g/ha): 90% | Polygonum convolvulus (efficacy in %) (Polygonum convolvulus [20]; application rate 80 g/ha): 100% | Setaria viridis (efficacy in %) (Setaria viridis [21]; application rate 20 g/ha): 90% | Setaria viridis (efficacy in %) (Setaria viridis [21]; application rate 80 g/ha): 100% | Veronica persica (efficacy in %) (Veronica persica [22]; application rate 20 g/ha): 80% | Veronica persica (efficacy in %) (Veronica persica [22]; application rate 80 g/ha): 100% | Viola tricolor (efficacy in %) (Viola tricolor [23]; application rate 20 g/ha): 100% | Viola tricolor (efficacy in %) (Viola tricolor [23]; application rate 80 g/ha): 100% | Brassica napus (efficacy in %) (Brassica napus [24]): 0% | Triticum aestivum (efficacy in %) (Triticum aestivum [25]): 10% | Zea mays (efficacy in %) (Zea mays [26]; application rate 20 g/ha): 0%

CCOC(=O)CCOc1ncccc1Sc1cc(-n2c(=O)cc(C(F)(F)F)n(N)c2=O)c(F)cc1Cl [I.5-442, Ethyl 3-{[3-({5-[3-amino-2,6-dioxo-4-(trifluoromethyl)-3,6-dihydropyrimidin-1(2H)-yl]-2-chloro-4-fluorophenyl}sulfanyl)pyridin-2-yl]oxy}propanoate]
pest or weed control at 5 g/ha (Abutilon theophrasti [1]): 100% | pest or weed control at 5 g/ha (Matricaria inodora [5]): 80% | pest or weed control at 5 g/ha (Pharbitis purpurea [6]): 100% | pest or weed control at 5 g/ha (Polygonum convolvulus [7]; application rate 5 g/ha): 100% | pest or weed control at 5 g/ha (Setaria viridis [8]): 90% | pest or weed control at 5 g/ha (Veronica persica [9]): 100% | Brassica napus (efficacy in %) (Brassica napus [11]): 0% | Brassica napus (efficacy in %) (Brassica napus [11]; application rate 5 g/ha): 20% | Oryza sativa (efficacy in %) (Oryza sativa; application rate 5 g/ha): 20% | Triticum aestivum (efficacy in %) (Triticum aestivum [27]; application rate 1.25 g/ha): 10% | Triticum aestivum (efficacy in %) (Triticum aestivum [27]; application rate 5 g/ha): 20% | Abutilon theophrasti (efficacy in %) (Abutilon theophrasti [14]): 100% | Alopecurus myosuroides (efficacy in %) (Alopecurus myosuroides): 80% | Amaranthus retroflexus (efficacy in %) (Amaranthus retroflexus [15]; application rate 20 g/ha): 100% | Amaranthus retroflexus (efficacy in %) (Amaranthus retroflexus [15]; application rate 80 g/ha): 100% | Digitaria sanguinalis (efficacy in %) (Digitaria sanguinalis [16]; application rate 80 g/ha): 80% | Echinochloa crus-galli (efficacy in %) (Echinochloa crus-galli [17]): 80% | Matricaria inodora (efficacy in %) (Matricaria inodora [18]; application rate 80 g/ha): 90% | Pharbitis purpurea (efficacy in %) (Pharbitis purpurea [19]): 100% | Polygonum convolvulus (efficacy in %) (Polygonum convolvulus [20]; application rate 20 g/ha): 100% | Polygonum convolvulus (efficacy in %) (Polygonum convolvulus [20]; application rate 80 g/ha): 100% | Setaria viridis (efficacy in %) (Setaria viridis [21]; application rate 80 g/ha): 100% | Veronica persica (efficacy in %) (Veronica persica [22]; application rate 20 g/ha): 90% | Veronica persica (efficacy in %) (Veronica persica [22]; application rate 80 g/ha): 100% | Viola tricolor (efficacy in %) (Viola tricolor [23]; application rate 20 g/ha): 100% | Brassica napus (efficacy in %) (Brassica napus [24]): 0% | Glycine max (efficacy in %) (Glycine max [28]): 0% | Triticum aestivum (efficacy in %) (Triticum aestivum [25]): 20% | Zea mays (efficacy in %) (Zea mays [26]; application rate 20 g/ha): 0% | Zea mays (efficacy in %) (Zea mays [26]; application rate 80 g/ha): 20%
